Experimental findings from PubChem BioAssay AID624491 (Broad Institute, 2012) are described below.

This assay concerns D54 ERlucT glycosylation luciferase reporter, luminescence, 24 h. Kind of assay: blockers of NLG process in reporter cells – D54 ERlucT cells, luminescence, cherry-picks, dose response (AID 624491).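 Further: signal gain reflects blocked N-linked glycosylation of a luciferase reporter; actives raise luciferase signal so AC26 marks activators of the reporter.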
For the compound `Cc1c(-c2nc(N)nc(Nc3ccccc3)n2)oc2ccccc12`, the AC26 is 3890 nM.
For the compound `Cc1ccc2nc3c(cc(C(N)=S)c(=N)n3CCCOC(C)C)c(=O)n2c1`, the AC26 was 1140 nM.
The figure for `Cc1cc(C)cc(NC2=NC3(CCCCC3)N=C(N)N2)c1` is 545 nM; for `CCOc1ncccc1C(=O)Nc1cc2c(cc1Br)OCCO2` it is 7780 nM; for `O=C(N/N=C/c1cccc(C(F)(F)F)c1)C1CCN(c2ncc(C(F)(F)F)cc2Cl)CC1` it is 5890 nM.
Under `CCOC(=O)[C@H]1[C@H]2COc3ccc(OC)cc3[C@@H]2N2C(=O)c3cc(OC)c(OC)cc3NC(=O)[C@@]12C` stands 300 nM; under `COc1ccc2c(c1)[C@H]1[C@H](CO2)[C@H](c2ccccc2)[C@]2(C)C(=O)Nc3ccc(Cl)cc3C(=O)N12`, 426 nM; under `COc1cc(C(=O)NC2CCN(C)CC2)ccc1Nc1ncc2c(n1)N(C1CCCCC1)CCC(=O)N2C`, 11.3 nM.
Turning to `O=C(Nc1ccc(Cl)cn1)c1cccc(F)c1`, the AC26 was 6980 nM.
For `COc1ccc(NC(=O)C(=O)NCC2CCCN2S(=O)(=O)c2cccs2)cc1` (stereo not drawn), the AC26 is 5020 nM.
For the compound `c1ccc(CN2CCC(Nc3nc(-c4cccnc4)nc4ccccc34)CC2)cc1`, the AC26 is 6130 nM.
On to `O=C1CCCN1c1ccc(S(=O)(=O)Nc2ccc3c(c2)OCCO3)cc1`, for which the AC26 was 9890 nM.
Under `COc1ccc(C(=O)c2ccc(OC)c(N)c2)cc1N` stands 143 nM; under `CSCCOC(=O)c1[nH]c2c(c1C)C(=O)CC(c1ccco1)C2` (stereo not drawn), 526 nM; under `Cn1c(=O)[nH]c(=O)c2c1nc(SCC(N)=O)n2Cc1cccc(Br)c1`, 660 nM.
`Cc1cc(=O)[nH]c(N/N=C/c2cc(C)n(CC(F)(F)F)c2C)n1`: the AC26 was 47.6 nM.
For `O=C(NC1CCCCC1)c1ccc([N+](=O)[O-])o1`, the AC26 was 852 nM.
The figure for `COc1ccccc1OCC(=O)N/N=C/C=C/c1ccc([N+](=O)[O-])o1` is 432 nM; for `Cn1c(=O)c([N+](=O)[O-])c(-n2ccnc2)c2ccccc21` it is 4170 nM.
Consider `Cc1cccn2c(=O)c3cc(C(=O)NC4CCCC4)c(=N)n(CC4CCCO4)c3nc12` (stereo not drawn), for which the AC26 was 8180 nM.
For `O=C1Cc2c([nH]c3ccc(Br)cc23)-c2ccccc2N1`, the AC26 is 351 nM.
For `CCN(CC)CCCNC(=O)CSc1c2c(nc3cc(Cl)ccc13)CCCC2`, the AC26 is 11400 nM.
`CCN(CC)S(=O)(=O)c1ccc(-c2nnc(SCC(=O)N3CCc4ccccc43)o2)cc1`: the AC26 is 1460 nM.
The figure for `CCOC(=O)c1ccccc1NS(=O)(=O)c1ccc(OC)cc1` is 16000 nM; for `COc1cc(CN2CCc3ccccc3C2)ccc1O` it is 696 nM; for `NC(=O)CC(NC(=O)Cc1ccc(Br)cc1)c1ccc(NC2CCN(Cc3ccccc3)CC2)c([N+](=O)[O-])c1` (stereo not drawn) it is 496 nM.
Under `Cc1cc(C)nc(/N=C(\N)Nc2ccc(OCc3ccccc3)cc2)n1` stands 8.88 nM; under `CCOC(=O)/C(=C\c1ccccc1)C(=O)c1cc(C(C)=O)c(Nc2ccccc2)s1`, 1150 nM; under `C(=C\c1nccc2c1[nH]c1ccccc12)/c1ccccc1`, 4680 nM.
Under `Brc1ccc(C2=Nn3c(nnc3-c3n[nH]c4c3CCC4)SC2)cc1` stands 407 nM; under `COc1ccc(OC)c(S(=O)(=O)Nc2ccc(-c3ccc4nnc(C)n4n3)cc2)c1`, 3190 nM; under `CCN(c1cccc(C)c1)S(=O)(=O)c1ccc(-c2cc(C)no2)s1`, 1270 nM.
For `COc1cc(C(=O)N/N=C/c2cc([N+](=O)[O-])cs2)cc(OC)c1OC`, the AC26 is 349 nM.
The figure for `Cc1cccc(C)c1OCCNC(=O)C(=O)NCc1ccco1` is 1710 nM.
With `Cc1ccnc2nc(C(=O)Nc3cc(Cl)ccc3N3CCOCC3)nn12`, the AC26 was 659 nM.
The figure for `Cc1cc(=O)oc2cc(OCC(=O)N3c4ccccc4CC3C)ccc12` (stereo not drawn) is 1090 nM.
With `Cc1ccc(CNC(=O)Cc2ccc(Br)cc2)cc1`, the AC26 was 6690 nM.
The figure for `COc1ccccc1/C=N/NC(=O)CSc1cc(C)nc2ccccc12` is 2940 nM.
Under `CC(C)(C)n1nnnc1C(c1ccccc1)N1CCc2ccccc2C1` (stereo not drawn) stands 13900 nM; under `O=c1cc(-c2ccccc2)[nH]c2ccccc12`, 433 nM; under `CN1CCN(C(c2ccc(Br)cc2)c2cc(Cl)c3cccnc3c2O)CC1` (stereo not drawn), 1810 nM.
The figure for `COC(=O)c1ccc(/C=C/C(=O)c2ccc(OC)c(OC)c2)cc1` is 4100 nM; for `Cc1ccc(/C=N/NC(=O)CCn2nc(C)cc2C)c(C)c1` it is 5510 nM.
For the compound `COc1ccc(NCC(=O)n2c(C)c(C)c3ccccc32)cc1`, the AC26 is 3640 nM.
The figure for `O=C(N/N=C/C(Br)=C/c1ccccc1)c1cc(-c2ccco2)[nH]n1` is 5350 nM; for `COc1ccccc1NS(=O)(=O)c1ccc(C(=O)Nc2ncccc2O)cc1` it is 7090 nM; for `COc1ccc(S(=O)(=O)Nc2cc3c(cc2C(C)=O)OCO3)cc1` it is 5560 nM.
As to `Cc1ccc(C(=O)N2C(CC(=O)Nc3ccc(Cl)cc3)C(=O)NC3CCCCC32)cc1` (stereo not drawn), the AC26 was 12600 nM.
`COc1cc(/C=C/C(=O)OCC(=O)NCc2ccc(F)cc2)ccc1O`: the AC26 is 1590 nM.
The figure for `Cn1cccc1/C=C1\SC(=Nc2ccccc2)NC1=O` is 1150 nM; for `C=CCOc1ccc2nc(NC(=O)OC)[nH]c2c1` it is 414 nM.
The figure for `CCc1nn2c(NCCCO)cc(C)nc2c1-c1ccc(F)cc1` is 1630 nM; for `Cc1nn(-c2ccccc2)c(Cl)c1/C=C/C(=O)c1ccc(O)cc1` it is 5020 nM.
For `CCN1CCN(c2ccc([N+](=O)[O-])cc2C(=O)c2ccc(Cl)cc2)CC1`, the AC26 is 11200 nM.
For `CCOc1cc(NC(=O)CCl)c(OCC)cc1NC(=O)CCl`, the AC26 was 1690 nM.
On to `CCCNC(=O)c1ccccc1NC(=O)c1ccc2c(c1)NC(=O)C(C)S2` (stereo not drawn), for which the AC26 is 1450 nM.
As to `Cn1c(C(=O)NC2CCCCCC2)cc2c(=O)n(C)c3ccccc3c21`, the AC26 was 4470 nM.
Regarding `COc1ccccc1OCC(=O)NNC(=O)c1ccoc1C`, the AC26 is 722 nM.
The figure for `COc1ccc(C(=O)NCc2nnc(SCC(=O)NO)n2Cc2ccccc2)cc1` is 4440 nM.
`Cc1ccc(-c2nn3c(C)nnc3c3ccccc23)cc1S(=O)(=O)N1CCN(CCO)CC1`: the AC26 was 3870 nM.
Under `CC[C@]12c3[nH]c4cc(CCC(=O)N(C)C)ccc4c3CCN1C(=O)[C@@H](CC(=O)NC/C=C(\C)CCC=C(C)C)C[C@@H]2C(=O)N1CCN(C(=O)c2ccco2)CC1` stands 2860 nM; under `CCOc1cc(C)nc(NCc2ccccc2)n1`, 14300 nM.
Regarding `CN1CCc2nc3sc(C#N)c(N)c3c(-c3cccs3)c2C1`, the AC26 was 261 nM.
Consider `c1ccc(-c2nc(-n3ccnc3)nc(-n3ccnc3)n2)cc1`, for which the AC26 is 2780 nM.
The figure for `COc1cccc(OCC(O)CN2CCN(CCN3C(=O)c4cccc5cccc(c45)C3=O)CC2)c1` (stereo not drawn) is 4250 nM; for `CCc1ccc(N2C(=O)NC(=O)/C(=C\C=C\c3ccco3)C2=O)cc1` it is 1280 nM.
The figure for `O=C(N/N=C/c1cccc(Br)c1)c1ccc(N2CCCC2=O)cc1` is 6630 nM; for `O=C(COc1ccccc1CNCc1ccccc1)Nc1ccccc1` it is 850 nM.
As for `CC(=O)C1=C(C)OC(N)=C(C#N)C1c1cc([N+](=O)[O-])ccc1Cl` (stereo not drawn), the AC26 was 2900 nM.
The figure for `Cn1c(C(=O)OCC(=O)NCc2ccc(F)cc2)cc2occc21` is 8970 nM.
Turning to `Cc1ccc(-n2nc(C)c(NC(=O)CCl)c2C)cc1C`, the AC26 was 653 nM.
The figure for `CNc1ncnc(Sc2ccc(Cl)cc2)c1[N+](=O)[O-]` is 4540 nM; for `CCN(CC)c1ccc(/C=C2\C(=O)N(c3nnc(C)c(=O)[nH]3)N=C2C)cc1` it is 1420 nM; for `CC(C)Oc1ccccc1C1CC(=O)Nc2cc3c(cc21)OCCO3` (stereo not drawn) it is 844 nM.
On to `CC(=O)Nc1cccc(-c2ccnc3c2CC(C(=O)NCCc2ccccc2)O3)c1` (stereo not drawn), for which the AC26 is 1910 nM.
Take `CCOC(=O)c1ccc(Oc2cc(C)nc(SC)n2)cc1`: the AC26 is 1720 nM.
For the compound `c1ccc2sc(Sc3ncnc4sccc34)nc2c1`, the AC26 was 1480 nM.
Regarding `O=C(C=Cc1ccccc1F)c1ccccc1`, the AC26 was 3230 nM.
Under `CCN1C(=O)c2cccc3c(S(=O)(=O)Nc4ccccn4)ccc1c23` stands 2870 nM; under `CCOc1ccccc1NC(=O)CN(c1ccc(OC)cc1)S(=O)(=O)c1c(C)noc1C`, 4150 nM; under `O=C(c1ncn(Cc2ccccc2)c1C(=O)N1CCN(c2ccccc2)CC1)N1CCN(c2ccccc2)CC1`, 513 nM.
As to `Nc1c2ccccc2nc2ccccc12`, the AC26 was 364 nM.
For `CC(=O)NC(c1cccc(F)c1)c1nc(-c2ccccc2C)cs1` (stereo not drawn), the AC26 was 502 nM.
Under `CC(C)/C=C1\CC/C(=C\c2cccnc2)C1=O` stands 4840 nM; under `COc1ccc(-c2nc3c(C(=O)NCCN(C)C)cccc3c3ccccc23)cc1`, 4160 nM; under `CCc1ccc(N2C(=O)Nc3ccccc3C2(O)C(=O)N2CCN(c3ccccn3)CC2)cc1` (stereo not drawn), 625 nM.
In the case of `COc1cccc(NC(=O)CCCOc2cc(=O)n(C)c3ccccc23)c1`, the AC26 was 4130 nM.
For the compound `COc1cc(-c2noc(C)c2-c2ccc(N(C)C)nc2)cc(OC)c1OC`, the AC26 was 112 nM.
On to `CC(C)Sc1ccccc1C(=O)Nc1ccc2c(c1)n(C)c(=O)n2C`, for which the AC26 was 4830 nM.
Under `CCOC(=O)c1[nH]c2c(c1-c1ccccc1)C(=O)CC(c1ccccc1)C2` (stereo not drawn) stands 1480 nM; under `Cc1ccc(C(=O)NC(=C(Cl)Cl)S(=O)(=O)c2ccc(Cl)cc2)cc1`, 3660 nM.
Turning to `COc1cc(F)ccc1-c1csc(C(NC(C)=O)c2ccccc2)n1` (stereo not drawn), the AC26 was 11.1 nM.
For the compound `CCc1ccc2[nH]c3nc(SCC(=O)NNC(=O)c4ccc(C(C)(C)C)cc4)nnc3c2c1`, the AC26 was 4110 nM.
The figure for `COC(=O)c1cc(=O)n(-c2ccc(F)cc2)c(=Nc2ccc(F)cc2)s1` is 4230 nM; for `O=C(Nc1ncccc1O)c1ccc(S(=O)(=O)Nc2ccccc2)cc1` it is 2190 nM; for `CCN1C(=O)c2cccc3c(S(=O)(=O)Nc4ccccc4OC)ccc1c23` it is 4240 nM.
In the case of `Cc1ccc(NC(=O)c2ncn(CCCNCc3ccccc3)n2)cc1C`, the AC26 was 800 nM.
Regarding `COc1cc2c3c(cccc3c1)C(=O)N(CCN1CCCC1)C2=O`, the AC26 was 200 nM.
